Laboratory results as given in patent US5688507A, “Methods and compositions for inhibiting thrombogenesis” (Hamilton Civic Hospitals Research Development, Inc., priority 1995, dated 1997).

Experiments:
[1] = system: fibrin I (desAA fibrin); assay: Solid-phase binding of 125I-thrombin to fibrin-coated microtiter wells (ovalbumin-coated wells as non-specific control); settings: increasing concentrations, 2 h at 37° C., ovalbumin-well binding subtracted (FIG. 4)
Protocol: To examine the ability of various agents to displace thrombin from fibrin, a solid-phase system was developed wherein fibrin was immobilized on the surface of a microtiter plate well. Radiolabeled thrombin was then bound to the fibrin-coated surface, and after washing, the ability of various agents to displace the bound thrombin was evaluated. In this model, the binding of thrombin to immobilized ovalbumin serves as an index of nonspecific binding. The details of the model are as follows: after adding 100 μl of fibrinogen or ovalbumin (each at a concentration of 1 mg/ml) to the wells of microtiter plate, the plates were incubated for 18 hours at 4° C. The wells were then washed three times with 250 μl aliquots of phosphate buffered saline, pH 7.4, containing 0.1% ovalbumin and 6 mg/ml PEG 8,000 (POP buffer). Based on preliminary studies using radiolabeled fibrinogen or ovalbumin, each well bound 1.3±0.2 μg of fibrinogen, or 1.0±0.1 μg of ovalbumin. […] The reptilase completely converted the immobilized fibrinogen to fibrin I because quantitative amounts of fibrinopeptide A (2 mol fibrinopeptide A/mol of bound fibrinogen) was recovered in the supernatant buffer. […] At the end of the incubation period, the wells were washed three times and then counted to determine the concentration of thrombin bound to the fibrin-coated (+) or ovalbumin-coated (.largecircle.) wells (FIG. 4). […]

[2] = system: fibrin; settings: stated without experiment; cited from earlier work

thrombin
specific binding to fibrin-coated wells [1]: binds to fibrin in a saturable manner
native binding affinity between fibrin and thrombin in thrombus [2]: about 5×10^-5 M^-1
